According to the supplement of paper PMC13380429:
± gives the standard deviation of the averaged measurements.

What was measured:
Details in all cases: 72 h
HepG2 [1] = experiment: drug sensitivity score (DSS) for viability; higher = more toxic; extreme values may be limits of the assay
U2OS [2] = experiment: as above
Vero E6 [3] = experiment: as above
Caco-2 [4] = experiment: as above
Calu-3 [5] = experiment: as above
HepG2 [6] = experiment: relative viability EC50 (midpoint between 100% and the lowest measured viability); higher = less toxic
U2OS [7] = experiment: as above
Vero E6 [8] = experiment: as above
Caco-2 [9] = experiment: as above
Calu-3 [10] = experiment: as above
HepG2 [11] = experiment: cell viability relative to DMSO; higher = less toxic
U2OS [12] = experiment: as above
Vero E6 [13] = experiment: as above
Caco-2 [14] = experiment: as above
Calu-3 [15] = experiment: as above

Structure (SMILES) | drug sensitivity score (HepG2 [1]) | drug sensitivity score (U2OS [2]) | drug sensitivity score (Vero E6 [3]) | drug sensitivity score (Caco-2 [4]) | drug sensitivity score (Calu-3 [5]) | relative viability EC50 (HepG2 [6]) | relative viability EC50 (U2OS [7]) | relative viability EC50 (Vero E6 [8]) | relative viability EC50 (Caco-2 [9]) | relative viability EC50 (Calu-3 [10]) | cell viability (HepG2 [11]; 1 nM) | cell viability (HepG2 [11]; 10 nM) | cell viability (HepG2 [11]; 100 nM) | cell viability (HepG2 [11]; 1000 nM) | cell viability (HepG2 [11]; 10000 nM) | cell viability (U2OS [12]; 1 nM) | cell viability (U2OS [12]; 10 nM) | cell viability (U2OS [12]; 100 nM) | cell viability (U2OS [12]; 1000 nM) | cell viability (U2OS [12]; 10000 nM) | cell viability (Vero E6 [13]; 1 nM) | cell viability (Vero E6 [13]; 10 nM) | cell viability (Vero E6 [13]; 100 nM) | cell viability (Vero E6 [13]; 1000 nM) | cell viability (Vero E6 [13]; 10000 nM) | cell viability (Caco-2 [14]; 1 nM) | cell viability (Caco-2 [14]; 10 nM) | cell viability (Caco-2 [14]; 100 nM) | cell viability (Caco-2 [14]; 1000 nM) | cell viability (Caco-2 [14]; 10000 nM) | cell viability (Calu-3 [15]; 1 nM) | cell viability (Calu-3 [15]; 10 nM) | cell viability (Calu-3 [15]; 100 nM) | cell viability (Calu-3 [15]; 1000 nM) | cell viability (Calu-3 [15]; 10000 nM)
C[C@@H](C(=O)O)c1ccc(-c2ccccc2)c(F)c1 (racemic) [flurbiprofen-(+/-)] | 0 | 0 | 0 | 0 | 0.0333 ± 0.058 | > 10 µM | > 10 µM | > 10 µM | > 10 µM | > 10 µM | 94.95 ± 0.21% | 101 ± 9.9% | 94.9 ± 4% | 101 ± 2.8% | 100 ± 1.4% | 101.1 ± 1% | 100 ± 7.2% | 99.4 ± 2.7% | 99 ± 2.2% | 96.4 ± 5% | 100 ± 1.8% | 100 ± 1.6% | 97.15 ± 0.92% | 95.7 ± 6.5% | 97.2 ± 1.3% | 98.7 ± 8% | 95.2 ± 2.5% | 95.5 ± 4% | 96 ± 3.3% | 96 ± 8.2% | 92.6 ± 3.4% | 98.7 ± 5.3% | 93.3 ± 9.1% | 96.3 ± 3.1% | 98.3 ± 12%
NC(Cc1ccc(I)cc1)C(=O)O (stereo in doubt) [4-iodo-L-phenylalanine] | 0 | 0 | 0 | 0 | 0 | > 10 µM | > 10 µM | > 10 µM | > 10 µM | > 10 µM | 96.3% | 101% | 82.5% | 104% | 109% | 102% | 97.8% | 98.8% | 102% | 97.6% | 96.7% | 99.2% | 97.4% | 94.4% | 103% | 102% | 97.4% | 98.2% | 97.3% | 106% | 103% | 101% | 106% | 108% | 95.2%
O=C(O)c1cc(O)c2c(Cl)cc(Cl)cc2n1 [5,7-dichlorokynurenic-acid] | 0 | 0 | 0 | 0 | 0 | > 10 µM | > 10 µM | > 10 µM | > 10 µM | > 10 µM | 96.3% | 99.3% | 106% | 96.5% | 102% | 96% | 98.2% | 98.2% | 103% | 95.7% | 95.3% | 96.4% | 100% | 98.6% | 98.3% | 98.7% | 98.1% | 96.1% | 92.1% | 96.8% | 105% | 99.8% | 98.8% | 110% | 112%
